One compound from paper PMC12578387, “TET3 is a common epigenetic immunomodulator of pathogenic macrophages” (The Journal of Clinical Investigation, 2025) can be followed below.

One experiment deals with TET1 (Homo sapiens, UniProt Q8NFU7). Briefly: AlphaScreen of Bc-dependent TET1-VHL ternary complex formation (weaker than TET3; no TET1 degradation in cells). Format: binding. In general terms: In Alpha technology, singlet oxygen from a donor bead excites a nearby acceptor bead.
For experiment [1], the target named is TET3 (Tet methylcytosine dioxygenase 3) (Homo sapiens, UniProt O43151). Briefly: AlphaScreen of Bc-dependent TET3-VHL ternary complex formation; supported by co-IP and degradation of TET3 in human MDMs. The format is binding.
Chain of TET3 (Tet methylcytosine dioxygenase 3) (O43151 850-1795 limits assumed): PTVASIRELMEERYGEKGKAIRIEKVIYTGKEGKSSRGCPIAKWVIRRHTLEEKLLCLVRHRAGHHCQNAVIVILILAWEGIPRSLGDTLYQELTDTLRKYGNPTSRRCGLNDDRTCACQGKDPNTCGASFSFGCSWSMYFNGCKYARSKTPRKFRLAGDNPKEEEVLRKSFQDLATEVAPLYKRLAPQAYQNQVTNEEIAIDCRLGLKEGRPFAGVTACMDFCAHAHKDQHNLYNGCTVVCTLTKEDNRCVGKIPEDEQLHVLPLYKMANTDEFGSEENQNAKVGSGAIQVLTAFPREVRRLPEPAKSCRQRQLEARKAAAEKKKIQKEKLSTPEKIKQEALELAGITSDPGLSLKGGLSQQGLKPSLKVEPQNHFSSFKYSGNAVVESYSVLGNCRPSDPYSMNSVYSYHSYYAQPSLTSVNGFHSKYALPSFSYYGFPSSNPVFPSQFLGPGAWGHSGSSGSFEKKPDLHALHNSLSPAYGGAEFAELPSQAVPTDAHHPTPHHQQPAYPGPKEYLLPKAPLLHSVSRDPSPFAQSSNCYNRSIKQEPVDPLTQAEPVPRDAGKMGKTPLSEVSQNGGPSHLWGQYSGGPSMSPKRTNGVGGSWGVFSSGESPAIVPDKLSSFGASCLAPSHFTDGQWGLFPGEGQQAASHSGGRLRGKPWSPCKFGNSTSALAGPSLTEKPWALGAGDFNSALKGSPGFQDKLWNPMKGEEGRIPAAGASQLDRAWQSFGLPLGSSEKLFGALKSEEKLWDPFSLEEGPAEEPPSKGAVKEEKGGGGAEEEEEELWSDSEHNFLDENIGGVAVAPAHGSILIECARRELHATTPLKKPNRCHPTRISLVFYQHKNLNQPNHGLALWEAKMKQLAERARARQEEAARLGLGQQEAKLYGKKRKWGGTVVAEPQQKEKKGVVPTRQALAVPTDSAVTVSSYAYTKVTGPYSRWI
Chain of TET3 (Tet methylcytosine dioxygenase 3) (P40337 whole entry partner): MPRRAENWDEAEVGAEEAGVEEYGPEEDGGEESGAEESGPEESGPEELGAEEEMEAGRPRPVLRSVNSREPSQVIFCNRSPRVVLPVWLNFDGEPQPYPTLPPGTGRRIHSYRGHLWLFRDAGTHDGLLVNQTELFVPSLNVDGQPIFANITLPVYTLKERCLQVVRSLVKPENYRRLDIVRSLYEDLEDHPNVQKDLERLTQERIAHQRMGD

Chain of TET1 (Q8NFU7 1418-2136 limits assumed): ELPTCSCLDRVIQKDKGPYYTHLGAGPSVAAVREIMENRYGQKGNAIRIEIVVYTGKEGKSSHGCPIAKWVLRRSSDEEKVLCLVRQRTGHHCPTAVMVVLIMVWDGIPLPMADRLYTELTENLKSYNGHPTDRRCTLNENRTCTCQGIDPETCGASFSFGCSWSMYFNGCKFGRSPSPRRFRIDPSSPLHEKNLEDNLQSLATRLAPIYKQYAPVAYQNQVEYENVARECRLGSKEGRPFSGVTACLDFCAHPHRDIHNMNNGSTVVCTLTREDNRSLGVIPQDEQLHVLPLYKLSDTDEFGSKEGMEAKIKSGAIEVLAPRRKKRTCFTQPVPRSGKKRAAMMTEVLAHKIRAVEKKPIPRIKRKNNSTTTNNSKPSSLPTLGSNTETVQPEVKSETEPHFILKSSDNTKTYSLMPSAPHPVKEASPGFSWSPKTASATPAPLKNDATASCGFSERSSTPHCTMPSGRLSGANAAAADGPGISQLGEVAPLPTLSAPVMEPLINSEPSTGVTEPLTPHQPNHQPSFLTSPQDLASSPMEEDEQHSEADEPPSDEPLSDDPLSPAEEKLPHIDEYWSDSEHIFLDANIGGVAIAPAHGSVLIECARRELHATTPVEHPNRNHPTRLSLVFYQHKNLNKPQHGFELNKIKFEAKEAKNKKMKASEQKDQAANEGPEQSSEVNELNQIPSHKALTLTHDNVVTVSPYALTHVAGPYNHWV
Chain of TET1 (P40337 whole entry partner): as the sequence (P40337 whole entry partner) above

For orientation: EC50 means the concentration needed to bring the measured effect to its halfway point. Read a high EC50 as lower potency in that assay. Regarding `Nc1nc(=O)n(-c2cccc(-c3ccccc3)c2)cc1Cl` [Bc, Bobcat339], the values for the EC50 (at TET1; in experiment [1]) were 8.51 mM and 0.05 mM, respectively.
